Measured values published in patent publication US8173682B2, “Substituted pyridones as inhibitors of poly(ADP-ribose) polymerase (PARP)” (Aventis Pharmaceuticals Inc., priority 2004, dated 2012).
Structures can show the parent of a compound that is named as a salt.

Experiments:
[1] = test system: intracellular synthesis of poly(ADP-ribose) in HL60 cells; assay: Cell-based PARP assay (poly(ADP-ribose) immunodetection in fixed cells); settings: Homo sapiens, HL-60, overnight incubation with compound, serum-free media
Protocol: The following example illustrates the efficacy of the compounds of this invention in inhibiting the effects of PARP in a cell based assay.
Reagents: Media RMPI 1640+Glutamax: Gibco 61870-044); TBST/milk, TBST (Sigma T93039) containing 5% skimmed milk (Nestle Carnation nonfat dry milk)
HL60 cells at […] in serum free media are seeded into the wells of a 96-well plate at 100 μL/well. The plate is pre-incubated for 3 hr under normal tissue culture conditions. One hundred μL of serum-free media containing compound at 2× the required concentration in 0.6% DMSO are added (or 0.6% DMSO only to controls and blanks). The plate is incubated overnight under normal tissue culture conditions, then centrifuged at 190×g for 5 min at 4° C. to pellet cells. The media is carefully removed by aspiration, and the cells are incubated in 100 μL/well ice-cold 0.56% KCl for 2 min on ice. The plate is centrifuged as above to pellet cells, the KCl removed by aspiration, and 100 μL/well ice-cold methanol added. After 4 min on ice, methanol is removed by aspiration and the cells air-dried for 10-15 min at rt. The cells are washed with PBS×3, then washed with TBST/milk (1 wash, 5 min incubation at rt). The cells are incubated with 100 μL/well 0.25% Triton X 100 in PBS for 10 min at RT, then washed x# with PBS and ×1 with TBST. The cells are blocked for 1 hr with TBST/milk (200 μL/well) and then washed ×1 with TBST. The fixed cells are incubated with primary antibody (Calbiochem cat no. 528815) at 1:2000 dilution in TBST/milk (100 μL/well, overnight at 4 deg C.). The cells are washed with TBST (2 rinses, 1×15 min, 2×5 min at RT). The cells are incubated with secondary antibody (anti-rabbit Ig-biotin conjugate, Amersham RPN1004) in TBST/milk at 1:3500 dilution, 100 μL/well for 1 hr at RT. The cells are washed with TBST (2 rinses, 1×15 min, 2×5 min at RT). The cells are then incubated with 100 μL/well of 4-MUP (Sigma, M3168) in the dark for 4 hrs. The fluorescence is read using a plate reader (excitation at 360 nm, emission at 440 nm). To calculate compound effects, the fluorescence of the blank (no cells) is subtracted from all data. Fluorescence obtained with a standard cell-permeable potent inhibitor at 30 μM is subtracted from all other groups as this appears to represent a true blank. Compound effects can then be determined: a PARP inhibitor blocks the intracellular synthesis of poly(ADP-ribose), and results in a decreased reactivity (reduced final fluorescence) with primary antibody in the fixed and permeabilized cells.
The results obtained from this study are expressed as EC50 (median effective concentration of the test compound that was effective in preventing the cell death—expressed in micromolar (μM) concentration) for each of the tested compounds and are summarized in Table 2.

[2] = molecular target: T1, recombinant human PARP (PARP1) (Homo sapiens, UniProt P09874); assay: PARP enzyme assay, Method A (radioactivity or 'ELISA' enzyme assay with partially purified enzyme); type: biochemical; settings: recombinant human PARP preparation, radioactive or ELISA enzyme assay
T1 construct: Full length human PARP (PARP1) is assembled from PCR fragments; His6 tag with TEV site, from the pFastBac-HTb vector (own knowledge of the vector); made in house; host or cells: insect cells, baculovirus (Bac-to-Bac, Gibco-BRL)
T1 sequence (P09874 whole entry, the tested form may be a part): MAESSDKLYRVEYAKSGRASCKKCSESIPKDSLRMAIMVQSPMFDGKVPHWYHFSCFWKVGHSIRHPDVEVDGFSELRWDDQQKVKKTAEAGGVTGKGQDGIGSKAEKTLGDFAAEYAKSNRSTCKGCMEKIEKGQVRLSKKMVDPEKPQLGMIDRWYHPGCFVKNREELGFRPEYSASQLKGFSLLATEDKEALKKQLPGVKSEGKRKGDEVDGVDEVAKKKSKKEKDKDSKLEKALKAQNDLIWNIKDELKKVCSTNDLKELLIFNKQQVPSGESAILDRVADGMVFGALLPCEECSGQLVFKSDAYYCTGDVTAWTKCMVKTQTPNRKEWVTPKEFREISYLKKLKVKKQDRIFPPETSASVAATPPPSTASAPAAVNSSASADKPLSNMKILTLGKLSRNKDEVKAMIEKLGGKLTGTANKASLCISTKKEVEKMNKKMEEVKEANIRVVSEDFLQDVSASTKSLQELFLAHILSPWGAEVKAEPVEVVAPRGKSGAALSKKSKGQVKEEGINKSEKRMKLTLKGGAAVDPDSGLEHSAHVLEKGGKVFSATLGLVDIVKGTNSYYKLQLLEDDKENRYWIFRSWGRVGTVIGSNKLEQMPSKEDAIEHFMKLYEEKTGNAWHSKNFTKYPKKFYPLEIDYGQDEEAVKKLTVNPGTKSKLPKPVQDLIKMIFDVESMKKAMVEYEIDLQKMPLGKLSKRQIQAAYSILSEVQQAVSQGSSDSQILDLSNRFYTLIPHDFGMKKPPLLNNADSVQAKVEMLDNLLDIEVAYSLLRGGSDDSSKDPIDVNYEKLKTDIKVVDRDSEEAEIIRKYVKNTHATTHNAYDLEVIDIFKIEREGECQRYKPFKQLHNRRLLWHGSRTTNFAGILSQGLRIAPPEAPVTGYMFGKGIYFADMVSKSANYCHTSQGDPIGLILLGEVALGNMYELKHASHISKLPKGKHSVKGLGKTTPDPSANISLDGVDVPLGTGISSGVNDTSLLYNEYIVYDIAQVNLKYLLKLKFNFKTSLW
How it was run: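 Partially purified recombinant full-length His-tagged human PARP1, baculovirus-expressed. Radioactive format: 100 μg/mL sonicated DNA, 100 μg/mL histones, 100 mM Tris pH 8.0, 10 mM MgCl2, 200 μM labeled NAD, 10 min 37 °C or 60 min RT, TCA-precipitated counts. ELISA format: 250 μM NAD plus biotin-NAD on histone plates, TMB A450.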

[3] = molecular target: recombinantly expressed human PARP-1 enzyme (Homo sapiens, UniProt P09874); assay: PARP enzyme assay, Method B (tritium-labeled NAD incorporation); type: biochemical; settings: Method B; 200 μM NAD, room temperature 1 hour, pH 8.0; read-out: IC50 (μM)/Method B
Chain of recombinantly expressed human PARP-1 enzyme (P09874 whole entry): as the sequence (P09874 whole entry, the tested form may be a part) above
How it was run: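 DNA-activated purified recombinant enzyme (2 μg/mL) incubated with test compound for 1 h at room temperature, pH 8.0, with 200 μM NAD plus tritiated NAD, DNA and histones. TCA-precipitated radiolabelled protein collected on glass-fibre filters and counted; IC50 is the concentration halving incorporation versus no-inhibitor control.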

| EC50 [1] | IC50 [2] | IC50 [3] | Structure (SMILES) |
| --- | --- | --- | --- |
| 500 nM | 0.2 µM | – | Cc1[nH]c(=O)c2c(c1-c1cccc(C#N)c1)CCCC2 [Example 5, 3-(3-Methyl-1-oxo-1,2,5,6,7,8-hexahydroisoquinolin-4-yl)benzonitrile] |
| 120 nM | 0.31 µM | – | CCc1cc(-c2noc(C)n2)c(C)[nH]c1=O [Example 22, 3-Ethyl-6-methyl-5-(5-methyl-1,2,4-oxadiazol-3-yl)-1H-pyridin-2-one] |
| 4880 nM | 0.76 µM | – | CCc1cc(-c2ccc(S(=O)(=O)N3CCN(c4ccc(F)cc4)CC3)s2)c(C)[nH]c1=O [Example 25, 3-Ethyl-5-{5-[4-(4-fluorophenyl)piperazine-1-sulfonyl]thiophen-2-yl}-6-methyl-1H-pyridin-2-one] |
| 2940 nM | 0.19 µM | – | CCc1cc(-c2ccc(S(=O)(=O)NCc3ccc(C(F)(F)F)cc3)s2)c(C)[nH]c1=O [Example 26, 5-(5-Ethyl-2-methyl-6-oxo-1,6-dihydropyridin-3-yl)thiophene-2-sulfonic acid 4-trifluoromethylbenzylamide] |
| 14200 nM | 0.1 µM | – | CCc1cc(-c2ccc(S(=O)(=O)NCc3cc(F)cc(F)c3)s2)c(C)[nH]c1=O [Example 27, 5-(5-Ethyl-2-methyl-6-oxo-1,6-dihydropyridin-3-yl)thiophene-2-sulfonic acid 3,5-difluorobenzylamide] |
| 500 nM | 0.07 µM | – | CCc1cc(-c2ccc(S(=O)(=O)NC3CCN(Cc4ccccc4)CC3)s2)c(C)[nH]c1=O [Example 39, 5-(5-Ethyl-2-methyl-6-oxo-1,6-dihydropyridin-3-yl)thiophene-2-sulfonic acid (1-benzylpiperidin-4-yl)amide hydrochloride] |
| 430 nM | 0.42 µM | – | CCc1cc(-c2ccc(S(=O)(=O)NCCCN3CCCCC3)s2)c(C)[nH]c1=O [Example 63, 5-(5-Ethyl-2-methyl-6-oxo-1,6-dihydro-pyridin-3-yl)-thiophene-2-sulfonic acid (3-piperidin-1-yl-propyl)-amide hydrochloride] |
| 3110 nM | 0.3 µM | – | CCc1cc(-c2ccc(S(=O)(=O)N3CCC(N4CCCCC4)CC3)s2)c(C)[nH]c1=O [Example 67, 3-Ethyl-6-methyl-5-{5-[(4-piperidin-1-yl)piperidine-1-sulfonyl]thiophen-2-yl}-1H-pyridin-2-one hydrochloride] |
| 260 nM | 0.26 µM | – | CCc1cc(-c2ccc(S(=O)(=O)N3CCCC(Cn4ccnc4)C3)s2)c(C)[nH]c1=O (centres unmarked) [Example 70, 3-Ethyl-5-{5-[(3-imidazo-1-yl)methylpiperidine-1-sulfonyl]thiophene-2-yl}-6-methyl-1H-pyridin-2-one hydrochloride] |
| 330 nM | 0.31 µM | – | CCc1cc(-c2ccc(S(=O)(=O)N3CCC(O)C3)s2)c(C)[nH]c1=O (centres unmarked) [Example 85, 3-Ethyl-5-[5-(3-hydroxypyrrolidine-1-sulfonyl)thiophen-2-yl]-6-methyl-1H-pyridin-2-one] |
| 560 nM | 0.85 µM | – | CCc1cc(-c2ccc(S(=O)(=O)NCCN(C)C)s2)c(C)[nH]c1=O [Example 93, 5-(5-Ethyl-2-methyl-6-oxo-1,6-dihydropyridin-3-yl)thiophene-2-sulfonic acid (2-dimethylaminoethyl)amide hydrochloride] |
| 220 nM | 0.2 µM | – | CCc1cc(-c2ccc(S(=O)(=O)NCCN3CCCC3)s2)c(C)[nH]c1=O [Example 95, 5-(5-Ethyl-2-methyl-6-oxo-1,6-dihydropyridin-3-yl)thiophene-2-sulfonic acid (2-pyrrolidin-1-yl)ethylamide hydrochloride] |
| 50 nM | 0.17 µM | – | CCc1cc(-c2ccc(S(=O)(=O)NCc3cccnc3)s2)c(C)[nH]c1=O [Example 101, 5-(5-Ethyl-2-methyl-6-oxo-1,6-dihydropyridin-3-yl)-thiophene-2-sulfonic acid (pyridin-3-ylmethyl)amide hydrochloride] |
| – | – | 3.14 µM | CCc1cc(-c2cncc(C(=O)NCCc3ccccn3)c2)c(C)[nH]c1=O [Example 264, 5′-Ethyl-2′-methyl-6′-oxo-1′,6′-dihydro-[3,3′]bipyridinyl-5-carboxylic acid (2-pyridin-2-yl-ethyl)-amide] |
| – | – | 4.1 µM | CCc1cc(-c2cncc(C(=O)NCc3ccc(O)c(OC)c3)c2)c(C)[nH]c1=O [Example 265, 5′-Ethyl-2′-methyl-6′-oxo-1′,6′-dihydro-[3,3′]bipyridinyl-5-carboxylic acid 4-hydroxy-3-methoxy-benzylamide] |
| – | – | 1.8 µM | CCc1cc(-c2ccc(C(C)O)o2)c(C)[nH]c1=O (centres unmarked) [Example 268, 3-Ethyl-5-[5-(1-hydroxy-ethyl)-furan-2-yl]-6-methyl-1H-pyridin-2-one] |
| – | – | 1.97 µM | CCc1cc(-c2ccc(CNC(=O)C3CCCC3)o2)c(C)[nH]c1=O [Example 269, Cyclopentanecarboxylic acid [5-(5-ethyl-2-methyl-6-oxo-1,6-dihydro-pyridin-3-yl)-furan-2-ylmethyl]-amide] |
| – | – | 1.18 µM | CCc1cc(-c2ccc(CNC(=O)Cc3ccccc3)o2)c(C)[nH]c1=O [Example 270, N-[5-(5-Ethyl-2-methyl-6-oxo-1,6-dihydro-pyridin-3-yl)-furan-2-ylmethyl]-2-phenyl-acetamide] |
| – | – | 0.5 µM | CCc1cc(-c2ccc(CNC(=O)c3ccccc3)o2)c(C)[nH]c1=O [Example 271, N-[5-(5-Ethyl-2-methyl-6-oxo-1,6-dihydro-pyridin-3-yl)-furan-2-ylmethyl]-benzamide] |
| – | – | 0.44 µM | CCc1cc(-c2ccc(CNC(=O)c3ccc(OC)cc3)o2)c(C)[nH]c1=O [Example 272, N-[5-(5-Ethyl-2-methyl-6-oxo-1,6-dihydro-pyridin-3-yl)-furan-2-ylmethyl]-4-methoxy-benzamide] |
| – | – | 1.4 µM | CCc1cc(-c2ccc(CNC(=O)c3ccccn3)o2)c(C)[nH]c1=O [Example 273, Pyridine-2-carboxylic acid [5-(5-ethyl-2-methyl-6-oxo-1,6-dihydro-pyridin-3-yl)-furan-2-ylmethyl]-amide] |
| – | – | 0.83 µM | CCc1cc(-c2ccc(CNC(C)=O)o2)c(C)[nH]c1=O [Example 274, N-[5-(5-Ethyl-2-methyl-6-oxo-1,6-dihydro-pyridin-3-yl)-furan-2-ylmethyl]-acetamide] |
| – | – | 1.26 µM | CCc1cc(-c2ccc(CNC(=O)c3cccc(N(C)C)c3)o2)c(C)[nH]c1=O [Example 275, 3-Dimethylamino-N-[5-(5-ethyl-2-methyl-6-oxo-1,6-dihydro-pyridin-3-yl)-furan-2-ylmethyl]-benzamide] |
| – | – | 0.8 µM | CCc1cc(-c2ccc(CNC(=O)CN3CCCC3)s2)c(C)[nH]c1=O [Example 276, N-[5-(5-Ethyl-2-methyl-6-oxo-1,6-dihydropyridin-3-yl)-thiophen-2-ylmethyl]-2-pyrrolidin-1-yl-acetamide] |
| – | – | 7.9 µM | CCc1cc(-c2cccc(NS(=O)(=O)c3ccc(NC(C)=O)cc3)n2)c(C)[nH]c1=O [Example 278, N-[4-(5′-Ethyl-2′-methyl-6′-oxo-1′,6′-dihydro-[2,3′]bipyridinyl-6-ylsulfamoyl)-phenyl]-acetamide] |
